Experimental findings from patent US12275731B2, “Azaindole inhibitors of wild-type and mutant forms of LRRK2” (DANA-FARBER CANCER INSTITUTE, INC., priority 2018, dated 2025) are described below.

The structures appear in SMILES notation.

Common to all, as to assay: KinomeScan profiling
Holding throughout (assay type): binding

In test [1] the target is EGFR (Homo sapiens, UniProt P00533). The following applies: read-out: % control. Put shortly: (§1)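 First, compounds in DMSO are added at 1 μM to each of 468 kinase assays. Next, RLU signals are normalised between positive control (0%) and DMSO (100%). Finally, kinases under 35% are flagged active.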
Test [2] addresses YANK3 (Homo sapiens, UniProt Q86UX6). The settings on record: YANK3, 1 μM; read-out: % control. In a few lines:
as §1

Test [3] addresses MAP4K5 (Homo sapiens, UniProt Q9Y4K4). The settings on record: MAP4K5, 1 μM; read-out: % control. Put shortly: as §1
Test [4] addresses T1, PLK4 (Homo sapiens, UniProt O00444).
T1 sequence (O00444 1-970): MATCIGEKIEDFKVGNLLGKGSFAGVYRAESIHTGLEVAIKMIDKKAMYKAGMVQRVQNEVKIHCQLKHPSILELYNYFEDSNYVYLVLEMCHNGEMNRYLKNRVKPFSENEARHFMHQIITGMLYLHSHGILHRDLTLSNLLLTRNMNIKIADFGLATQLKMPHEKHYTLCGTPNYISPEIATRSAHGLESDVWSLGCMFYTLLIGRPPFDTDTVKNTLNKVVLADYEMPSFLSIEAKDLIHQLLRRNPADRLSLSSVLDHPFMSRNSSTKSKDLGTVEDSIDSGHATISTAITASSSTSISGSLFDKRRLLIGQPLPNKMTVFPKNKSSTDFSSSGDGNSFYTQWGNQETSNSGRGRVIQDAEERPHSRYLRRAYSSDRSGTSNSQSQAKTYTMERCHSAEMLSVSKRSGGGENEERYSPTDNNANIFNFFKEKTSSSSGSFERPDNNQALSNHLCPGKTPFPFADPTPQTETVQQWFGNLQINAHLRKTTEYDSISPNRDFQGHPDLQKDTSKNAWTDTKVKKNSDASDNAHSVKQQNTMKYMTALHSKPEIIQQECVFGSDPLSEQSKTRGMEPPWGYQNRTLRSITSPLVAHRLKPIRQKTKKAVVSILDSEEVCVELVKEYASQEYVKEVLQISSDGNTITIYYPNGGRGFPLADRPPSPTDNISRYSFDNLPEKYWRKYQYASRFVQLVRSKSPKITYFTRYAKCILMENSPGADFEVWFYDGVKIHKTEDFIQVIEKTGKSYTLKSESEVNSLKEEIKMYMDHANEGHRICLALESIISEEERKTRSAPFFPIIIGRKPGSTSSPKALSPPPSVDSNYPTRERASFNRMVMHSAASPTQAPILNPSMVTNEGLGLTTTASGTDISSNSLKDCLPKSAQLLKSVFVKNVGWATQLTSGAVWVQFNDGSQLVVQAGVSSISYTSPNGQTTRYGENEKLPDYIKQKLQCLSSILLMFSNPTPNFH
The following applies: PLK4, 1 μM; read-out: % control. Put shortly: as §1

In test [5] the target is T2, EPHB3 (Homo sapiens, UniProt P54753).
T2 sequence (P54753 34-998): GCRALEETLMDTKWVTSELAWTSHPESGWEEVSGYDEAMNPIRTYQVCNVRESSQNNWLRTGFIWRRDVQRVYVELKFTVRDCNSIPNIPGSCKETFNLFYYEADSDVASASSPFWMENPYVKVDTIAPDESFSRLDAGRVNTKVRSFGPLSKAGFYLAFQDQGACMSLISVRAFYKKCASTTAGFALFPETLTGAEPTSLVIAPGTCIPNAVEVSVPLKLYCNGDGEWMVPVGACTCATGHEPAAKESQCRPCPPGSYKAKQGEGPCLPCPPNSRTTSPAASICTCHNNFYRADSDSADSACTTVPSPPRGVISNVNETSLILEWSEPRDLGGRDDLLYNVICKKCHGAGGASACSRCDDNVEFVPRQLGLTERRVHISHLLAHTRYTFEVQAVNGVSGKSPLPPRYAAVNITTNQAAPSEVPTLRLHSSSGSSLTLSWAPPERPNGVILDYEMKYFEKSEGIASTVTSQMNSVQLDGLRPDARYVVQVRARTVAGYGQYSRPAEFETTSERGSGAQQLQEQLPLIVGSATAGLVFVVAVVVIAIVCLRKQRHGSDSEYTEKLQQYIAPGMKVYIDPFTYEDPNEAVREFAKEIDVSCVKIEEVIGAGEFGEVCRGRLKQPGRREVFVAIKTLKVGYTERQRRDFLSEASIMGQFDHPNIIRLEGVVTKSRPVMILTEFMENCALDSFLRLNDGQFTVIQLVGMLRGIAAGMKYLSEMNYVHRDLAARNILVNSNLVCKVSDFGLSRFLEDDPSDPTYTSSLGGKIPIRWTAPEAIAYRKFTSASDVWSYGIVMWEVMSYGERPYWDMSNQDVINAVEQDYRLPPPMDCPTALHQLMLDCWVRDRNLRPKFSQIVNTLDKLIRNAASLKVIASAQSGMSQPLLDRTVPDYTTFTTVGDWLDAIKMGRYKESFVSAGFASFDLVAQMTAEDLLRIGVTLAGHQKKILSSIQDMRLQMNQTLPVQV
The following applies: EPHB3, 1 μM; read-out: % control. In a few lines: as §1

Test [6] addresses T3, PIK3CA(H1047L) (Homo sapiens, UniProt P42336, H1047L).
T3 construct: purchased KinomeScan® (panel service)
The settings on record: read-out: % control. Put shortly: as §1

The target of test [7] is EGFR(G719S) (Homo sapiens, UniProt P00533, G719S). The settings on record: read-out: % control. Put shortly:
as §1

T3 sequence (P42336 whole entry H1047L): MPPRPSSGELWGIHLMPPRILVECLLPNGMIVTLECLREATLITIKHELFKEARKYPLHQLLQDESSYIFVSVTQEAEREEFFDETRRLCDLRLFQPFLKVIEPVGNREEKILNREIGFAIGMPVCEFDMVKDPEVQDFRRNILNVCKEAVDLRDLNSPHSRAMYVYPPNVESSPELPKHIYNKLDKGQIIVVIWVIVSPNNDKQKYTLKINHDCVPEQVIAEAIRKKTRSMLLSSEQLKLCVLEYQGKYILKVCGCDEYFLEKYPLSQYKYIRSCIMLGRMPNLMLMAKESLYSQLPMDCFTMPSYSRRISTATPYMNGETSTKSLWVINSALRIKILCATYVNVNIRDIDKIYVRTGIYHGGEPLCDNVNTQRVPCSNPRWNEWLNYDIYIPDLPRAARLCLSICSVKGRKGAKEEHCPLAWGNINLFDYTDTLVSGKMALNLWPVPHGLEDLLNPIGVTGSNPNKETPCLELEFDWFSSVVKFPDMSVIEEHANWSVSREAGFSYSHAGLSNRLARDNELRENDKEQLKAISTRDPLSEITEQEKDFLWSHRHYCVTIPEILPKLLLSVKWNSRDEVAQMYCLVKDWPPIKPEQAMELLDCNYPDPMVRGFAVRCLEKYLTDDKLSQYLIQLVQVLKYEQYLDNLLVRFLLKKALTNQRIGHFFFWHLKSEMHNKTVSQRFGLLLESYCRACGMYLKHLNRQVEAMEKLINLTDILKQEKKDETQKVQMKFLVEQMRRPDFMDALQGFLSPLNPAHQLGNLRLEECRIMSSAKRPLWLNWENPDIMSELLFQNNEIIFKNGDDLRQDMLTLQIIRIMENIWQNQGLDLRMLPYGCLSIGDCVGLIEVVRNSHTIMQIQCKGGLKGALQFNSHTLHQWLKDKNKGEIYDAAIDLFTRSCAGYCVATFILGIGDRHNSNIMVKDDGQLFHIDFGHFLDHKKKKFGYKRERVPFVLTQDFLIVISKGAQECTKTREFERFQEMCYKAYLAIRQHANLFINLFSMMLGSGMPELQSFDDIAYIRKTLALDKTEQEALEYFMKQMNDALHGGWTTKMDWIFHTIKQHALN
Sequence of MAP4K5 (Q9Y4K4 whole entry): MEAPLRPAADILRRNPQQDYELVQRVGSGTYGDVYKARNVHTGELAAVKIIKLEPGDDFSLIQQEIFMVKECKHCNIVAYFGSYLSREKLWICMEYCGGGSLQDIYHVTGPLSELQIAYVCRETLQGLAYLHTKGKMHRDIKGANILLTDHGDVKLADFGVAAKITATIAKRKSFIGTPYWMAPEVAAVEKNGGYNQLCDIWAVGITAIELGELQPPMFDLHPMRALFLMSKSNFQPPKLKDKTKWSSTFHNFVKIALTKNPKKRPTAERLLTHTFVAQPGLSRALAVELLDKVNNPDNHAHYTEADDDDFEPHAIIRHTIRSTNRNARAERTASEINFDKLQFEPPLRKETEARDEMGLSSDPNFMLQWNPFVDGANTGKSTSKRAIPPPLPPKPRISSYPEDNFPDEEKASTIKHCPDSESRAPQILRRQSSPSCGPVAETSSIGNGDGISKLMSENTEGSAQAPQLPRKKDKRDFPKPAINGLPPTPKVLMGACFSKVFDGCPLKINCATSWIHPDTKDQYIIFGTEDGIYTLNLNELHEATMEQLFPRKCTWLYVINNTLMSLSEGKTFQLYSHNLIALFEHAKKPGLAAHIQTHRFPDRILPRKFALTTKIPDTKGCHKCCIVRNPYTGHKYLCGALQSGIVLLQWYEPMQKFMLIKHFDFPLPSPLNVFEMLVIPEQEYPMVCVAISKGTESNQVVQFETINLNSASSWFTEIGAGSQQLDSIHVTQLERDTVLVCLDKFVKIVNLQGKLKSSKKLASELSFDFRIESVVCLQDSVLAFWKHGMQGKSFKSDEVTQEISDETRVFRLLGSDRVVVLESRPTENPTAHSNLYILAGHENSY
Sequence of EGFR(G719S) (P00533 25-1210 G719S): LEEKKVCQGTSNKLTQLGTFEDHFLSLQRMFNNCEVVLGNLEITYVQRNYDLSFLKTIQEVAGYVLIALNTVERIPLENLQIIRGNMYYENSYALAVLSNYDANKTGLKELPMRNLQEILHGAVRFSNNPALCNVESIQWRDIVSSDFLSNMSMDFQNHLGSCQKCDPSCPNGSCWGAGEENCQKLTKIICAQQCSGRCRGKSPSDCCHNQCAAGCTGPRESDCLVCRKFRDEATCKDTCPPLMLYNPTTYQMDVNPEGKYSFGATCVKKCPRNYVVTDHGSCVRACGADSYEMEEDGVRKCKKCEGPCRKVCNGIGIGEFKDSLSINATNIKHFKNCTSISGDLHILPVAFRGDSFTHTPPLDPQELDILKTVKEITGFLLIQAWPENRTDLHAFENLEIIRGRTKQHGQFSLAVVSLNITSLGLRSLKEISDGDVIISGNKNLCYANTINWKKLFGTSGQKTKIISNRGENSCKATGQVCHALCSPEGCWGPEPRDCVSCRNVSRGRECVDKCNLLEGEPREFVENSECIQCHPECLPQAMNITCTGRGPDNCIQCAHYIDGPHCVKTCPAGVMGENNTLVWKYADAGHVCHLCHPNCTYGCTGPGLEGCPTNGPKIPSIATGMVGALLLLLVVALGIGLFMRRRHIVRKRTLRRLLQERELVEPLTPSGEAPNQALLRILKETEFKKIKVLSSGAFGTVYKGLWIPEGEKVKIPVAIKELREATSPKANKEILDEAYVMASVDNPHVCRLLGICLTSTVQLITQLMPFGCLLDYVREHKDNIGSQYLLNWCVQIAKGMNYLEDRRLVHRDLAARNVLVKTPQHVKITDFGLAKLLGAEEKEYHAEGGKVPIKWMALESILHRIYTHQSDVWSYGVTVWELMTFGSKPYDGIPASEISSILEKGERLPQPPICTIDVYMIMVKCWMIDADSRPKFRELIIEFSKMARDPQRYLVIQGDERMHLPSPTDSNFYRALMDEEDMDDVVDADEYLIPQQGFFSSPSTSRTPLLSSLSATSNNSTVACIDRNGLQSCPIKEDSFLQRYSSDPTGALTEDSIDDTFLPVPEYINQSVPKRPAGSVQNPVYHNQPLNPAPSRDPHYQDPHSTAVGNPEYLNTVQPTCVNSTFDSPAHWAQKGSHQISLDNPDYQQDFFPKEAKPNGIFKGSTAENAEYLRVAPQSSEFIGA
Sequence of EGFR (P00533 25-1210): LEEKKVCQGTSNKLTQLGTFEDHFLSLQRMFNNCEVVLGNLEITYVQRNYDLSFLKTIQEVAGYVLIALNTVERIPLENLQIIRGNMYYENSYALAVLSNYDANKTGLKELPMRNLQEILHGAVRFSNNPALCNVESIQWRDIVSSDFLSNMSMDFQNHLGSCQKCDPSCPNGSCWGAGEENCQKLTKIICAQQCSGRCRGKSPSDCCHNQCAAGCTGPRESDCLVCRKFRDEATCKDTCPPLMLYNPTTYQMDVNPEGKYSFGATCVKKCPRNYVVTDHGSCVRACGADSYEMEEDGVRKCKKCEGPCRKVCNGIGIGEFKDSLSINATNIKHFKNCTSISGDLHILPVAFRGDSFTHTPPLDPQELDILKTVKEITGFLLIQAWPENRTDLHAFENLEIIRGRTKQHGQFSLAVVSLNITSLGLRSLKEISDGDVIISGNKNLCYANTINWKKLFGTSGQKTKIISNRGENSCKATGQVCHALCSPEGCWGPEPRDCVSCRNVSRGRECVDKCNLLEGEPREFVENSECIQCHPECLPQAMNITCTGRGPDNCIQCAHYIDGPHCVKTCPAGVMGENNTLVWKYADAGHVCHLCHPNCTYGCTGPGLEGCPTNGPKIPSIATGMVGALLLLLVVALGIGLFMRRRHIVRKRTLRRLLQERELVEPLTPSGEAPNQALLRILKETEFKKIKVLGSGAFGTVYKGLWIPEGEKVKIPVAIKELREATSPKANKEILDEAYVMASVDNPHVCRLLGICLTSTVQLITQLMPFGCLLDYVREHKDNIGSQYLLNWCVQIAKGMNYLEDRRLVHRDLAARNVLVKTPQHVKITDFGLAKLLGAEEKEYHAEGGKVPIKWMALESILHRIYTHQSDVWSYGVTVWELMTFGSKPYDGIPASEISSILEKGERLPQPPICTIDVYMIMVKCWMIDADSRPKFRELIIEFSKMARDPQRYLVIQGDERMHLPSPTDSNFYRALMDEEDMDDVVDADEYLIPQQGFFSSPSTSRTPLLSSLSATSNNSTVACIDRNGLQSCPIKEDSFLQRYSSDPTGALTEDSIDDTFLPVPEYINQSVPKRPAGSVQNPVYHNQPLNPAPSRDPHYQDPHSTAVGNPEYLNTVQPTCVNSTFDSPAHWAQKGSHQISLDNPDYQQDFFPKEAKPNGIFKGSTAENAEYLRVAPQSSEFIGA
Sequence of YANK3 (Q86UX6 whole entry): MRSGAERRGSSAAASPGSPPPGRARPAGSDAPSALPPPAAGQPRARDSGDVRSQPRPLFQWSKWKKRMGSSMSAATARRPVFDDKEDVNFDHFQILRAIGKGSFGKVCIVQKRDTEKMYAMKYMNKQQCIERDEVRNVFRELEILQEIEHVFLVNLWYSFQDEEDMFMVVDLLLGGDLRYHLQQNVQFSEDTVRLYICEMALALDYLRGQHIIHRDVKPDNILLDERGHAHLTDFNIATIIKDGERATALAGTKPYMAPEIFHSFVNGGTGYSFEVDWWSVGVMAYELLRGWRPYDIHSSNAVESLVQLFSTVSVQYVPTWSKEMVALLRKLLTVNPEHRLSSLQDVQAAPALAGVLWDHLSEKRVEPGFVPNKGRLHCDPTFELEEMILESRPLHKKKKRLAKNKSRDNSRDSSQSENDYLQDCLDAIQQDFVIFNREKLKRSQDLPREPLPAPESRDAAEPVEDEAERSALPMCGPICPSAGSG

`CNc1c(-c2ccc(C(=O)N3CCC(N4CCOCC4)CC3)cc2)cnc2[nH]cc(Cl)c12` [Compound 96, (4-(3-chloro-4-(methylamino)-1H-pyrrolo[2,3-b]pyridin-5-yl)phenyl)(4-morpholinopiperidin-1-yl)methanone]: the remaining binding at 1 µM in test [1] came to 100%; in test [2], 99%; in test [3], 39%; in test [4], 27%; in test [5], 100%; in test [6] it was 92%. The remaining binding at 1 µM in test [7] was found to be 100%.
In the case of `O=C(c1ccc(-c2cnc3[nH]cc(Cl)c3c2NC2CCCC2)cc1)N1CCC(N2CCOCC2)CC1` [Compound 101, (4-(3-chloro-4-(cyclopentylamino)-1H-pyrrolo[2,3-b]pyridin-5-yl)phenyl)(4-morpholinopiperidin-1-yl)methanone], the remaining binding at 1 µM was 97% in test [1]; 57% in test [2]; 88% in test [3]; 78% in test [4]; 79% in test [5]; 100% in test [6]. Also, the remaining binding at 1 µM in test [7] was determined as 100%.
In the case of `CNc1c(-c2cnn([C@H]3CCN(C(C)=O)C[C@@H]3F)c2)cnc2[nH]cc(Cl)c12` [Compound 77, 1-((3S,4S)-4-(4-(3-chloro-4-(methylamino)-1H-pyrrolo[2,3-b]pyridin-5-yl)-1H-pyrazol-1-yl)-3-fluoropiperidin-1-yl)ethan-1-one], the remaining binding at 1 µM in test [1] was 95%; in test [2] it was 97%; in test [3], 77%; in test [4], 27%; in test [5] it was 100%; in test [6], 97%. Also, the remaining binding at 1 µM in test [7] amounted to 100%.
